Laboratory results from publication PMC10410611, “Rhenium(I) Tricarbonyl Complexes of 1,10-Phenanthroline Derivatives with Unexpectedly High Cytotoxicity” (Inorganic Chemistry, 2023).

What was measured:
[1] = cited from earlier work
ctDNA [2] = test: DNA melting; format: binding, calf; conditions: ctDNA 40 μM, compound 30 μM
Protocol: The DNA binding ability of complex 6 was confirmed by measuring the DNA melting temperature prior to complex binding. Briefly, 40 μM ctDNA was incubated with 30 μM of the complex at 37 °C for 15 min. Afterward, the absorbance of the solution was measured at 260 nm in each °C increment in temperature within the range from 60–97 °C. A Cary UV 300 (Agilent Technologies) was used to measure all absorbances. The experiment was programmed with a 1 °C/min temperature ramp rate from the temperature range 60–97 °C, and the holding time was 1 min. Finally, the absorbance of each experiment was normalized to 0 and 1 and further compared with the melting temperature of native ctDNA.

ctDNA [3] = system: ctDNA; parameters: method as in PMID 18467423; conditions: for ctDNA; cited from earlier work
PC3 cells [4] = test: Cytotoxicity, Resazurin assay, normoxic conditions; format: cell-based, human; conditions: for IC50: normoxic conditions (∼15% O2 level), 48 h, Resazurin, read-out: IC50 (μM) ± S.D. PC3
Protocol: (§1) The standard Resazurin assay was performed to determine the cytotoxicity of the synthesized complexes. […] After 24 h of the initial incubation period, the medium was replenished by a fresh metal complex-containing medium (100 μL/well) and incubated for an additional 48 h. Initially, the metal complex was dissolved in DMSO and the target concentration was achieved by further dilution with the medium. […] Each of the reported IC50 values is the mean of three individual experiments with standard deviation, and each concentration was assayed in sextuplicate in each successive experiment.

PC3 cells [5] = test: Cytotoxicity, Resazurin assay, hypoxic conditions; format: cell-based, human; conditions: for IC50: PC3, hypoxic conditions (2% O2), 48 h, Resazurin, read-out: IC50 (µM) ± S.D. Hypoxia; for Hypoxia resistance factor (ratio of IC50 in hypoxia and normoxia): PC3
Text: Initially, at least three consecutive cell passages were maintained in hypoxic conditions before starting any experiments.

RPE-1 cells = test: Cytotoxicity, Resazurin assay, normoxic conditions; format: cell-based, human; conditions: normoxic conditions (∼15% O2 level), 48 h, read-out: IC50 (μM) ± S.D. RPE-1
Protocol: as §1

[6] = system: 3D multicellular PC3 cell spheroids; test: Cytotoxicity against 3D cell spheroid, AlamarBlue assay; format: cell-based, human; conditions: average diameter 435 μm, 72 h, normoxic, read-out: IC50 against 3D multicellular PC3 cells spheroid
Protocol: 1 × 10^4 PC3 cells were seeded in each well of a Corning 96 Well Ultra-Low Attachment Treated Spheroid Microplate. After 96 h of incubation at 37 °C in normoxic conditions, the average spheroid size observed was 435 μm. Half of the medium was replaced by an equal volume of complex-containing (two times of target concentrations) medium. After 72 h, the cell viability was measured using the AlamarBlue assay. Finally, the IC50 values were determined by using GraphPad Prism 5 software after applying four parameter fitting.

## O.O=c1cccccc1[O][Re].[C-]#[O+].[C-]#[O+].[C-]#[O+] [fac-[Re(CO)3(Trop)(H2O)]]
[1]
  pKa: 8.96 ± 0.02

## CC[n+]1c(-c2ccccc2)c2cc(N)ccc2c2ccc(N)cc21 [EB, ethidium bromide, reference compound]
ctDNA [2]
  shift of ctDNA melting temperature (ΔTm): 4 ± 0.1 °C
ctDNA [3]
  binding constant of EB (KEB): 1 × 10^7 M^–1

## Nc1n[n+]([O-])c2ccccc2[n+]1[O-] [Tirapazamine, tirapazamine, reference compound]
PC3 cells [4]; Homo sapiens, PC-3
  IC50: ~100 µM
PC3 cells [4]; PC3, normoxia, maximum tested concentration 100 µM
  cell killing in comparison to the control: around 50%
PC3 cells [5]; Homo sapiens, PC-3
  IC50: 20.4 ± 3 µM
PC3 cells [5]
  Hypoxia resistance factor (ratio of IC50 in hypoxia and normoxia): 0.2

## N.N.[Cl][Pt][Cl] [cisplatin, reference compound]
PC3 cells [4]; normoxic conditions
  selectivity (ratio between IC50 against RPE-1 and IC50 against PC3 cells): 5
PC3 cells [4]
  IC50: 6.9 ± 0.5 µM
RPE-1 cells
  IC50: 36 ± 4 µM
PC3 cells [5]
  Hypoxia resistance factor (ratio of IC50 in hypoxia and normoxia): > 7
  IC50: > 50 µM
[6]
  IC50: 6.22 µM
